Experimental data as given in patent publication US5480990A, “Bicyclopolyazamacrocyclocarboxylic acid complexes for use as contrast agents” (The Dow Chemical Company, priority 1993, dated 1996).

What was measured:
[1] = commercial contrast agent, background; cited from earlier work
[2] = Biodistribution: % injected dose in several tissues of Sprague Dawley rats, 30 min after tail vein injection; assay type: in vivo; conditions: rat
Description: Sprague Dawley rats were allowed to acclimate for five days then injected with 100 μL of the complex solution via a tail vein. The rats weighed between 150 and 200 g at the time of injection. After 30 min. the rats were killed by cervical dislocation and dissected. The amount of radioactivity in each tissue was determined by counting in a NaI scintillation counter coupled to a multichannel analyzer. The counts were compared to the counts in 100 μL standards in order to determine the percentage of the dose in each tissue or organ.
The percent dose in blood was estimated assuming blood to be 7% of the body weight. The percent dose in bone was estimated by multipuling the percent dose in the femur by 25. The percent dose in muscle was estimated assuming muscle to be 43% of the body weight.
In addition to organ biodistribution, chelates of the compounds of Formula (I) were evaluated for efficiency of bone localization since phosphonates are known for their ability to bind to hydroxyapatite.
The percent of the injected dose of complex of Example 1 (^159 Gd-PCTA) in several tissues are given in Table I. The numbers represent the average of 5 rats? per data point.

[3] = Imaging experiments (MRI) in rat, kidney enhancement; assay type: in vivo, Sprague Dawley rat; conditions: intramuscular, 0.05-0.1 mmol Gd/kg body weight
Description: Injectable solutions were first prepared (0.5M) by dissolving the appropriate amount of each complex in 2 mL of deionized water. The pH of the solutions were then adjusted to 7.4 using 1M HCl or NaOH as needed. The total Gd content of each solution was then determined by ICP analysis.
An anethized Sprague Dawley rat was injected intramuscularly with one of the metal solutions described above at a dose of 0.05-0.1 mmol Gd/kg body weight. Images were then taken at various time intervals and compared with a non-injected control at time 0.

[4] = Percent metal as a complex (Sephadex column, 159Gd tracer); assay type: physicochemical
Description: A stock ^159 GdCl3 solution was prepared by adding 2 μL of 3×10^-4 M ^159 GdCl3 in 0.1N HCl to 2 mL of a 3×10^-4 M GdCl3 carrier solution. Appropriate ligand solutions were then prepared in deionized water. The 1:1 ligand/metal complexes were then prepared by combining the ligands (dissolved in 100-500 μL of deionized water) with 2 mL of the stock 159GDCl3 solution, followed by through mixing to give an acidic solution (pH=2). The pH of the solution was then raised to 7.0 using 0.1N NaOH. The percent metal as a complex was then determined by passing a sample of the complex solution through a Sephadex™ G-50 column, eluting with 4:1 saline ([…]) and collecting 2×3 mL fractions. The amount of radioactivity in the combined elutions was then compared with that left on the resin (non-complexed metal is retained on the resin). […]
A solution of the ligand of Example D was prepared by dissolving 3.8 mg of ligand/0.517 mL of deionized water (pH=2). […] After thorough mixing, the percent metal as a complex was determined by passing a sample of the complex solution through a Sephadex™ column, eluting with 4:1 saline (0.85% NaCl/NH4 OH), and collecting 2×3 mL fractions. The amount of radioactivity in the combined elutions was then compared with that left on the resin. […] By this method complexation was determined to be 92%. […] The pH stability was then determined using the General Procedure above.

| Structure (SMILES) | distribution [1] | elimination [1] | % injected dose in blood, average ([2]; blood (assumed 7% of body weight), 100 μL tail vein, average of 5 rats) [% INJECTED DOSE] | % injected dose in bone, average ([2]; bone (femur x 25), 100 μL tail vein, average of 5 rats) [% INJECTED DOSE] | % injected dose in kidney, average ([2]; kidney, 100 μL tail vein, average of 5 rats) [% INJECTED DOSE] | % injected dose in liver, average ([2]; liver, 100 μL tail vein, average of 5 rats) [% INJECTED DOSE] | % injected dose in muscle, average ([2]; muscle (assumed 43% of body weight), 100 μL tail vein, average of 5 rats) [% INJECTED DOSE] | bone to blood ratio (% dose/g) ([2]; ratio of % dose/g) | bone to liver ratio ([2]; ratio of % dose/g) | bone to muscle ratio ([2]; ratio of % dose/g) | % injected dose in spleen, average ([2]; spleen, 100 μL tail vein, average of 5 rats) [% INJECTED DOSE] | uptake by the renal system [3] | enhancement of the kidney image ([3]; vs non-injected control at time 0) | complexation after passing through the resin ([4]; 1:1 ligand to metal ratio, after passing through the resin) | complexation (percent metal as a complex) ([4]; 1:1 ligand/metal, before passing through the resin) [%] |
| --- | --- | --- | --- | --- | --- | --- | --- | --- | --- | --- | --- | --- | --- | --- | --- |
| CNC[C@H](O)[C@@H](O)[C@H](O)[C@H](O)CO.CNC[C@H](O)[C@@H](O)[C@H](O)[C@H](O)CO.O=C([O-])CN(CCN(CC(=O)[O-])CC(=O)O)CCN(CC(=O)[O-])CC(=O)O.[Gd+3] [Magnevist, complex of gadolinium with diethylenetriaminepentaacetic acid] | freely distributes in extracellular fluid | efficient elimination through the renal system |  |  |  |  |  |  |  |  |  |  |  |  |  |
| O=C([O-])CN1CCN(CC(=O)[O-])Cc2cccc(n2)CN(CC(=O)[O-])CC1.[159Gd+3] [Gd-PCTA, ^159 Gd-3,6,9,15-tetraazabicyclo[9.3.1]pentadeca-1(15),11,13-triene-3,6,9-trimethylenecarboxylic acid] |  |  | 5.10 | 7.38 | 1.81 | 0.78 | 7.76 | 7 | 3.5 | 4.8 | 0.05 | rapidly taken up by the renal system | brilliant enhancement of the kidney cortex as well as peripheral kidney tissue | greater than 98% | 92 |
